Data: publication PMC8286840, “Identifying SARS-CoV-2 antiviral compounds by screening for small molecule inhibitors of Nsp3 papain-like protease” (Biochemical Journal, 2021)
Counter-ions that a name gives are not always drawn. Like-named read-outs stand apart in the source and are kept apart here.

Tests used:
SARS-CoV-2 PLpro = SARS-CoV-2 PLpro (Severe acute respiratory syndrome coronavirus 2, UniProt P0DTD1); format: biochemical; conditions: 3.75 µM and 10 µM compound, 0.5 µM enzyme, 5 h RT
[1] = biological target: T1, SARS-CoV-2 PLpro (nsp3 1564–1878) (Severe acute respiratory syndrome coronavirus 2, UniProt P0DTD1); experiment: biochemical; format: biochemical; conditions: for Normalized activity High (3.75 µM) / Normalized activity Low (1.25µM): normalized to control without compound
[2] = biological target: T1, SARS-CoV-2 PLpro (nsp3 1564–1878); experiment: biochemical; parameters: FRET-quenched peptide (Pro3) cleavage by PLpro, 10 min pre-incubation, slope over 20 min, normalised to no-compound control; conditions: high concentration screen, read-out: % of control remaining
[3] = biological target: T1, SARS-CoV-2 PLpro (nsp3 1564–1878); experiment: biochemical; parameters: FRET-quenched peptide (Pro3) cleavage by PLpro, 10 min pre-incubation, slope over 20 min, normalised to no-compound control; conditions: low concentration screen, read-out: % of control remaining

With `O=C(O)c1cccc(O)c1O` [Pyrocatechuic acid] the “Inhibition of PLpro cleavage of the substrate (gel-based)” value (SARS-CoV-2 PLpro) was “did not inhibit”, the Z score ([1]; screen hits, Table 1) was −6.846 and the “Inhibition (%) 1.25 µM” value ([1]; screen, 1.25 µM compound, 1.75 µM enzyme, 20 µM substrate) was 0%. The “slope value (of slope value/control) 1.25 µM” value ([1]; screen, 1.25 µM compound, number after the slash is the control without compound) was 453, the “Inhibition (%) 3.75 µM” value ([1]; screen, 3.75 µM compound, 1.75 µM enzyme, 20 µM substrate) was 49% and the “slope value (of slope value/control) 3.75 µM” value ([1]; screen, 3.75 µM compound, number after the slash is the control without compound) was 226. It also gave a remaining activity at 3.75 µM ([2]; Well no.=6595) of 51% and a remaining activity at 1.25 µM ([3]; Well no.=6595) of 103%.
`CC[C@@H]1Cc2cc(O)ccc2C2=C1c1ccc(O)cc1C[C@H]2CC` (relative stereo) [(R,R)-cis-Diethyl tetrahydro-2,8-chrysenediol] was tested, and the Z score ([1]; screen, Table S1) was -14.155, the “Normalized activity High (3.75 µM)” value ([1]; screen, Table S1) was 0 and the “Normalized activity Low (1.25µM)” value ([1]; screen, Table S1) was 0.8033.
In the case of `Cn1c(=O)c2[nH]c(-c3ccc(S(=O)(=O)O)cc3)nc2n(C)c1=O` [8-(p-Sulfophenyl)theophylline], the Z score ([1]; screen, Table S1) is reported as -14.155, the “Normalized activity High (3.75 µM)” value ([1]; screen, Table S1) is reported as 0 and the “Normalized activity Low (1.25µM)” value ([1]; screen, Table S1) is reported as 0.9534.
In the case of `CCCn1c(=O)c2[nH]c(-c3ccc(S(=O)(=O)O)cc3)nc2n(CCC)c1=O` [1,3-Dipropyl-8-p-sulfophenylxanthine], the Z score ([1]; screen, Table S1) is reported as -14.155, the “Normalized activity High (3.75 µM)” value ([1]; screen, Table S1) is reported as 0 and the “Normalized activity Low (1.25µM)” value ([1]; screen, Table S1) is reported as 0.885.
With `N#CCNC(=O)c1ccc(-c2ccnc(Nc3ccc(N4CCOCC4)cc3)n2)cc1` [CYT11387] the remaining activity at 3.75 µM ([2]; Well no.=2753) was 99.6% and the remaining activity at 1.25 µM ([3]; Well no.=2753) was 98.6%.
`O=C1N[C@@H](Cc2cnc[nH]2)C(=O)N2CCC[C@@H]12` [Cyclo(his-pro)] gave a remaining activity at 3.75 µM ([2]; Well no.=6245) of 105% and a remaining activity at 1.25 µM ([3]; Well no.=6245) of 106%.
Compound `O=C(O)c1ccc2c3c1cccc3c(=O)n1c3ccccc3nc21` [STO-609] has a remaining activity at 3.75 µM ([2]; Well no.=2658) of 89.5% and a remaining activity at 1.25 µM ([3]; Well no.=2658) of 90%.
For `COc1ccc(Cl)cc1C(=O)NCCc1ccc(S(=O)(=O)NC(=O)NC2CCCCC2)cc1` [Glibenclamide], the remaining activity at 3.75 µM ([2]; Well no.=475) was 102% and the remaining activity at 1.25 µM ([3]; Well no.=475) was 101%.
`O=C1CN2Cc3c(ccc(Cl)c3Cl)N=C2N1` [Anagrelide HCl] showed a remaining activity at 3.75 µM ([2]; Well no.=5022) of 99% and a remaining activity at 1.25 µM ([3]; Well no.=5022) of 93.8%.
For `Cc1c2ccncc2c(C)c2c1[nH]c1ccccc12` [Ellipticine], the remaining activity at 3.75 µM ([2]; Well no.=651) was 91.7%, the remaining activity at 3.75 µM ([2]; Well no.=3271) was 98% and the remaining activity at 1.25 µM ([3]; Well no.=651) was 95.5%. The remaining activity at 1.25 µM ([3]; Well no.=3271) was 102%.
`NCCc1ccc(O)c(O)c1` [Dopamine hydrochloride] was tested, and the remaining activity at 3.75 µM ([2]; Well no.=518) was 99.9% and the remaining activity at 1.25 µM ([3]; Well no.=518) was 102%.
With `CN1CCc2cc3c(cc2[C@H]1[C@@H]1OC(=O)c2c1ccc1c2OCO1)OCO3` [(+)-Bicuculline] the remaining activity at 3.75 µM ([2]; Well no.=369) was 98.1%, the remaining activity at 3.75 µM ([2]; Well no.=3679) was 99.2% and the remaining activity at 1.25 µM ([3]; Well no.=369) was 103%. The remaining activity at 1.25 µM ([3]; Well no.=3679) was 99.7%.
`CC(C)N(CCCCOCC(=O)O)c1cnc(-c2ccccc2)c(-c2ccccc2)n1` [MRE-269] showed a remaining activity at 3.75 µM ([2]; Well no.=7719) of 105% and a remaining activity at 1.25 µM ([3]; Well no.=7719) of 107%.
Work on `N#C/C(=C(/N)Sc1ccc(N)cc1)c1ccccc1C(F)(F)F` [MEK1/2 Inhibitor] yielded a remaining activity at 3.75 µM ([2]; Well no.=2562) of 96.8% and a remaining activity at 1.25 µM ([3]; Well no.=2562) of 94.4%.
`COc1cc(C(=O)NS(=O)(=O)c2ccccc2C)ccc1Cc1cn(C)c2ccc(NC(=O)OC3CCCC3)cc12` [Zafirlukast] was tested, and the remaining activity at 3.75 µM ([2]; Well no.=8579) was 101%, the remaining activity at 1.25 µM ([3]; Well no.=1762) was 99.5% and the remaining activity at 1.25 µM ([3]; Well no.=8579) was 102%.
`C=CC(=O)Nc1cccc(Sc2nc(Nc3ccc(N4CCN(C)CC4)cc3)ncc2Cl)c1` [WZ8040] showed a remaining activity at 3.75 µM ([2]; Well no.=4717) of 107% and a remaining activity at 1.25 µM ([3]; Well no.=4717) of 107%.
With `C[C@]12CC[C@H]3[C@@H](CC[C@@]45O[C@@H]4C(O)=C(C#N)C[C@]35C)[C@@H]1CC[C@@H]2O` [Trilostane] the remaining activity at 3.75 µM ([2]; Well no.=4815) was 107% and the remaining activity at 1.25 µM ([3]; Well no.=4815) was 101%.
Compound `CN1CCC(=C2c3ccccc3CCc3sccc32)CC1` [Pizotifen] has a remaining activity at 3.75 µM ([2]; Well no.=7531) of 91.1% and a remaining activity at 1.25 µM ([3]; Well no.=7531) of 103%.
`CC(C)C[C@H]1C(=O)N2CCC[C@H]2[C@]2(O)O[C@](NC(=O)[C@@H]3C=C4c5cccc6[nH]c(Br)c(c56)C[C@H]4N(C)C3)(C(C)C)C(=O)N12` [Bromocriptine (mesylate)] showed a remaining activity at 3.75 µM ([2]; Well no.=6891) of 96.2% and a remaining activity at 1.25 µM ([3]; Well no.=6891) of 97.5%.
With `CS(=O)(=O)c1ccc(-c2cc(Br)sc2-c2ccc(F)cc2)cc1` [DuP 697] the remaining activity at 3.75 µM ([2]; Well no.=499) was 107% and the remaining activity at 1.25 µM ([3]; Well no.=499) was 105%.
For `COc1ccc(CN2CCN(C(c3ccc(F)cc3)c3ccc(F)cc3)CC2)c(OC)c1OC` [Lomerizine], the remaining activity at 3.75 µM ([2]; Well no.=1941) was 100% and the remaining activity at 1.25 µM ([3]; Well no.=1941) was 98.3%.
Compound `NCCNS(=O)(=O)c1cccc2cnccc12` [H-9 dihydrochloride] has a remaining activity at 3.75 µM ([2]; Well no.=340) of 100% and a remaining activity at 1.25 µM ([3]; Well no.=340) of 96.1%.
`CC1=C[C@]23C(=O)[C@@H](C=C(CO)[C@@H](O)[C@]2(O)[C@H]1O)[C@H]1[C@@H](C[C@H]3C)C1(C)C` [Ingenol] was tested, and the remaining activity at 3.75 µM ([2]; Well no.=3308) was 99.1% and the remaining activity at 1.25 µM ([3]; Well no.=3308) was 98.5%.
Compound `O=C(/C=C/c1ccc(O)c(O)c1)O[C@@H]1C[C@@](O)(C(=O)O)C[C@@H](O)[C@@H]1O` [Neochlorogenic acid] has a remaining activity at 3.75 µM ([2]; Well no.=6490) of 98.3% and a remaining activity at 1.25 µM ([3]; Well no.=6490) of 98%.
Compound `CC(=O)N[C@@H](CC(C)C)C(=O)N[C@@H](CC(C)C)C(=O)N[C@H](C=O)CCCN=C(N)N` [Leupeptin Hemisulfate] has a remaining activity at 3.75 µM ([2]; Well no.=8716) of 91% and a remaining activity at 1.25 µM ([3]; Well no.=8716) of 92%.
`Oc1c(Cl)cc(Cl)c2cccnc12` [Chloroxine] showed a remaining activity at 3.75 µM ([2]; Well no.=5266) of 97.2% and a remaining activity at 1.25 µM ([3]; Well no.=5266) of 91.9%.
`Cc1ccc(C)c(-c2cc(C(F)(F)F)nn2-c2ccc(S(N)(=O)=O)cc2)c1` [4-[5-(2,5-dimethylphenyl)-3-(trifluoromethyl)-1H-pyrazol-1-yl]benzenesulfonamide] was tested, and the remaining activity at 3.75 µM ([2]; Well no.=5924) was 89.1% and the remaining activity at 1.25 µM ([3]; Well no.=5924) was 97.9%.
`O=C(O)CCc1nc(-c2ccccc2)c(-c2ccccc2)o1` [Oxaprozin] gave a remaining activity at 3.75 µM ([2]; Well no.=1090) of 104% and a remaining activity at 1.25 µM ([3]; Well no.=1090) of 102%.
Compound `CN1CCc2cc(O)c(O)cc2C(c2ccccc2)C1` (centres unmarked) [SKF 75670 hydrobromide] has a remaining activity at 3.75 µM ([2]; Well no.=1360) of 105% and a remaining activity at 1.25 µM ([3]; Well no.=1360) of 103%.
Compound `CCCN(CCC)[C@H]1CCc2c(F)ccc(O)c2C1` [S(-)-UH-301 hydrochloride] has a remaining activity at 3.75 µM ([2]; Well no.=1334) of 95.3% and a remaining activity at 1.25 µM ([3]; Well no.=1334) of 97.2%.
